pIC50: −log10 of the molar value. Read-outs that look alike come from different tables or passages of the source.
Tests used:
[1] = system: NCI-H1975 cells (EGFR T790M L858R); assay: EGFR-SOS cellular inhibition assay (CellTiter-Glo, 3D); format: cell-based
SOS1 = SOS1 (Homo sapiens (Human), UniProt Q07889); assay: Ras-SOS interaction assay (HTRF); format: biochemical
[2] = system: MIA PaCa-2 cells (K-Ras G12C); assay: Ras-SOS cellular growth inhibition assay (CellTiter-Glo, 3D); format: cell-based
Summary of the method: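 MIA PaCa-2 cells grown in ultra-low-attachment plates (3D) in DMEM/Ham's F12 with 10% FCS and 2.5% horse serum, treated the day after seeding with a 9-point 3-fold compound series for about 5 days. Viability by CellTiter-Glo luminescence; IC50 from four-parameter fit.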

[3] = Homo sapiens, 120 h, NCI-H1975, 3D proliferation, about 5 days, read-out: Bio-Cell-Prolif-3D (H1975 IC50)
[4] = Homo sapiens, NCI-H1975, EGFR T790M L858R, read-out: IC50 in inhibiting growth of NCI-H1975 cell line
[5] = K-RasG13D utilized, read-out: IC50 inhibition of SOS
[6] = K-RasG13D, read-out: IC50 value against SOS1
[7] = Homo sapiens, MIA PaCa-2, 120 h, MIA PaCa-2, 3D proliferation, about 5 days, read-out: Bio-Cell-Prolif-3D (MiaPaca2 IC50)
[8] = Homo sapiens, MIA PaCa-2, MIA PaCa-2, read-out: IC50 in inhibiting MIA PaCa-2 cell growth

Sequence of SOS1 (Q07889 564-1049): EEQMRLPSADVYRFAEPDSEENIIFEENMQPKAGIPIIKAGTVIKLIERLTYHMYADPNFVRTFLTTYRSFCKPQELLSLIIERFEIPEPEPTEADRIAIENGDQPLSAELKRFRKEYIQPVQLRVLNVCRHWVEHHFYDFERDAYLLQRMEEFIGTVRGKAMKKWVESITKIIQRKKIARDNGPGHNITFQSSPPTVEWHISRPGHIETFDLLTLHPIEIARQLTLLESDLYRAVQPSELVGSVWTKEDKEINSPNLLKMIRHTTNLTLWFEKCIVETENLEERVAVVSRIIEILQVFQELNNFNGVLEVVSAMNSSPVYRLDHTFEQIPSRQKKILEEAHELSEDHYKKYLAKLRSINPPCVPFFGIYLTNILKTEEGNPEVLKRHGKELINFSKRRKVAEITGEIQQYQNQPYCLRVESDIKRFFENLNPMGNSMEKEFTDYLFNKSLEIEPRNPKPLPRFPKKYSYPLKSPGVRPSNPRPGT

Row | pIC50 [1, 3] | pIC50 [1, 4] | pIC50 (SOS1; [5]) | pIC50 (SOS1; [6]) | pIC50 [2, 7] | pIC50 [2, 8] | pIC50 ([1]; NCI-H1975, 3D proliferation, about 5 days, read-out: Bio-Cell-Prolif-3D (H1975 IC50)) | pIC50 ([1]; NCI-H1975, EGFR T790M L858R, read-out: IC50 in inhibiting growth of NCI-H1975 cell line) | pIC50 ([2]; MIA PaCa-2, 3D proliferation, about 5 days, read-out: Bio-Cell-Prolif-3D (MiaPaca2 IC50)) | pIC50 ([2]; MIA PaCa-2, read-out: IC50 in inhibiting MIA PaCa-2 cell growth) | SMILES
1 | ≥ 6.00 | > 6.30 | > 7.00 | > 7.30 | ≥ 6.00 | > 6.30 | – | – | – | – | Cc1nc(N[C@H](C)c2cccc(C(F)F)c2F)c2cc(C3CCS(=O)(=O)CC3)c(OCCN(C)C)nc2n1 [Compound 145, (R)-4-(4-((1-(3-(difluoromethyl)-2-fluorophenyl)-ethyl)amino)-7-(2-(dimethylamino)ethoxy)-2-methylpyrido[2,3-d]pyrimidin-6-yl)tetrahydro-2H-thiopyran 1,1-dioxide]
2 | ≥ 6.00 | > 6.30 | > 7.00 | > 7.30 | ≥ 6.00 | – | – | – | – | – | COc1nc2nc(C)nc(N[C@H](C)c3cccc(CC(F)F)c3F)c2cc1C1CCS(=O)(=O)CC1 [Compound 147, (R)-4-(4-((1-(3-(2,2-difluoroethyl)-2-fluorophenyl)ethyl)amino)-7-methoxy-2-methylpyrido[2,3-d]pyrimidin-6-yl)tetrahydro-2H-thiopyran 1,1-dioxide]
3 | ≥ 6.00 | > 6.30 | > 7.00 | > 7.30 | ≥ 6.00 | > 6.30 | – | – | – | – | COc1nc2nc(C)nc(N[C@H](C)c3cccc(CC(F)F)c3F)c2cc1N1CCN(C)CC1 [Compound 149, (R)-N-(1-(3-(2,2-difluoroethyl)-2-fluorophenyl)ethyl)-7-methoxy-2-methyl-6-(4-methylpiperazin-1-yl)pyrido[2,3-d] pyrimidin-4-amine]
4 | – | – | > 7.00 | > 7.30 | – | – | ≥ 6.00 | > 6.30 | ≥ 6.00 | > 6.30 | COc1nc2nc(C)nc(N[C@H](C)c3cccc(C(F)F)c3F)c2cc1C1CCS(=N)(=O)CC1 (stereo partly drawn) [Compound 154, (R)-4-(4-((1-(3-(difluoromethyl)-2-fluorophenyl)ethyl)amino)-7-methoxy-2-methylpyrido[2,3-d]pyrimidin-6-yl)-1-iminohexahydro-1λ6-thiopyran 1-oxide]
5 | ≥ 6.00 | > 6.30 | > 7.00 | > 7.30 | ≥ 6.00 | > 6.30 | – | – | – | – | COc1nc2nc(C)nc(N[C@H](C)c3cccc(C(F)(F)C4CCN(C(C)C)CC4)c3F)c2cc1C1CCN(C(C)C)CC1 [Compound 161, (R)-N-(1-(3-(difluoro(1-isopropylpiperidin-4-yl)methyl)-2-fluorophenyl)ethyl)-6-(1-isopropylpiperidin-4-yl)-7-methoxy-2-methylpyrido[2,3-d]pyrimidin-4-amine]
6 | ≥ 6.00 | > 6.30 | > 7.00 | > 7.30 | ≥ 6.00 | > 6.30 | – | – | – | – | COc1nc2nc(C)nc(N[C@H](C)c3cccc(C(F)(F)C4CCN(C(C)C)CC4)c3F)c2cc1N1CCN(C(C)C)CC1 [Compound 163, (R)-N-(1-(3-(difluoro(1-isopropylpiperidin-4-yl)methyl)-2-fluorophenyl)ethyl)-6-(4-isopropylpiperazin-1-yl)-7-methoxy-2-methylpyrido[2,3-d]pyrimidin-4-amine]
7 | ≥ 6.00 | > 6.30 | > 7.00 | > 7.30 | ≥ 6.00 | – | – | – | – | – | COc1nc2nc(C)nc(N[C@H](C)c3cccc(C(F)(F)F)c3F)c2cc1C1CCN(C(C)=O)CC1 [Compound 165, (R)-1-(4-(4-((1-(2-fluoro-3-(trifluoromethyl)phenyl)ethyl)amino)-7-methoxy-2-methylpyrido[2,3-d]pyrimidin-6-yl)piperidin-1-yl)ethan-1-one]
8 | ≥ 6.00 | > 6.30 | > 7.00 | > 7.30 | ≥ 6.00 | > 6.30 | – | – | – | – | COc1nc2ncnc(N[C@H](C)c3cccc(C(F)(F)F)c3F)c2cc1N1CCN(C2CCOCC2)CC1 [Compound 166, (R)-N-(1-(2-fluoro-3-(trifluoromethyl)phenyl)ethyl)-7-methoxy-6-(4-(tetrahydro-2H-pyran-4-yl)piperazin-1-yl)pyrido[2,3-d]pyrimidin-4-amine]
9 | ≥ 6.00 | – | > 7.00 | > 7.30 | 5.00 to 6.00 | – | – | – | – | – | COc1nc2nc(C)nc(N[C@H](C)c3cccc(C(F)(F)F)c3F)c2cc1C1CCN(C(=O)C2CN(C)CCO2)CC1 (stereo partly drawn) [Compound 167, (4-(4-(((R)-1-(2-fluoro-3-(trifluoromethyl)phenyl)ethyl)amino)-7-methoxy-2-methylpyrido[2,3-d]pyrimidin-6-yl)piperidin-1-yl)(4-methylmorpholin-2-yl)methanone]
10 | ≥ 6.00 | > 6.30 | > 7.00 | > 7.30 | ≥ 6.00 | > 6.30 | – | – | – | – | COc1nc2nc(C)nc(N[C@H](C)c3cccc(C(F)(F)CO)c3F)c2cc1C1CCS(=O)(=O)CC1 [Compound 174, (R)-4-(4-((1-(3-(1,1-difluoro-2-hydroxyethyl)-2-fluorophenyl)ethyl)amino)-7-methoxy-2-methylpyrido[2,3-d]pyrimidin-6-yl)tetrahydro-2H-thiopyran 1,1-dioxide]

Continued, compound first:

Row | SMILES | pIC50 [1, 3] | pIC50 [1, 4] | pIC50 (SOS1; [5]) | pIC50 (SOS1; [6]) | pIC50 [2, 7] | pIC50 [2, 8] | pIC50 ([1]; NCI-H1975, 3D proliferation, about 5 days, read-out: Bio-Cell-Prolif-3D (H1975 IC50)) | pIC50 ([1]; NCI-H1975, EGFR T790M L858R, read-out: IC50 in inhibiting growth of NCI-H1975 cell line) | pIC50 ([2]; MIA PaCa-2, 3D proliferation, about 5 days, read-out: Bio-Cell-Prolif-3D (MiaPaca2 IC50)) | pIC50 ([2]; MIA PaCa-2, read-out: IC50 in inhibiting MIA PaCa-2 cell growth)
11 | COCCOc1nc2nc(C)nc(N[C@H](C)c3cccc(C(F)F)c3F)c2cc1C1(C#N)CC1 [Compound 151, (R)-1-(4-((1-(3-(difluoromethyl)-2-fluorophenyl)ethyl)amino)-7-(2-methoxyethoxy)-2-methylpyrido[2,3-d]pyrimidin-6-yl)cyclopropane-1-carbonitrile] | ≥ 6.00 | > 6.30 | – | > 7.30 | ≥ 6.00 | – | – | – | – | –
12 | COc1nc2ncnc(N[C@H](C)c3cccc(CC(F)F)c3F)c2cc1C1CCS(=O)(=O)CC1 [Compound 152, (R)-4-(4-((1-(3-(2,2-difluoroethyl)-2-fluorophenyl)ethyl)amino)-7-methoxypyrido[2,3-d]pyrimidin-6-yl)tetrahydro-2H-thiopyran 1,1-dioxide] | ≥ 6.00 | – | > 7.00 | > 7.30 | ≥ 6.00 | – | – | – | – | –
13 | COc1nc2nc(C)nc(N[C@H](C)c3cccc(C(F)F)c3F)c2cc1C1CCS(=N)(=O)CC1 (stereo partly drawn) [Compound 153, 4-(4-(((R)-1-(3-(difluoromethyl)-2-fluorophenyl)ethyl)amino)-7-methoxy-2-methylpyrido[2,3-d]pyrimidin-6-yl)-1-iminohexahydro-1λ6-thiopyran 1-oxide] | ≥ 6.00 | > 6.30 | > 7.00 | > 7.30 | ≥ 6.00 | > 6.30 | – | – | – | –
14 | COCCOc1nc2nc(C)nc(N[C@H](C)c3cccc(C(F)F)c3F)c2cc1C1CCS(=O)(=O)CC1 [Compound 157, (R)-4-(4-((1-(3-(difluoromethyl)-2-fluorophenyl)ethyl)amino)-7-(2-methoxyethoxy)-2-methylpyrido[2,3-d]pyrimidin-6-yl)tetrahydro-2H-thiopyran 1,1-dioxide] | ≥ 6.00 | > 6.30 | > 7.00 | > 7.30 | ≥ 6.00 | > 6.30 | – | – | – | –
15 | COCCOc1nc2nc(C)nc(N[C@H](C)c3cccc(C(F)F)c3OCCOC)c2cc1C1CCS(=O)(=O)CC1 [Compound 158, (R)-4-(4-((1-(3-(difluoromethyl)-2-(2-methoxyethoxy)phenyl)ethyl)amino)-7-(2-methoxyethoxy)-2-methylpyrido[2,3-d]pyrimidin-6-yl)tetrahydro-2H-thiopyran 1,1-dioxide] | 5.00 to 6.00 | – | > 7.00 | – | ≥ 6.00 | – | – | – | – | –
16 | COc1nc2nc(C)nc(N[C@H](C)c3cccc(C(F)(F)C(C)(C)O)c3F)c2cc1N1CCS(=O)(=O)CC1 [Compound 169, (R)-4-(4-((1-(3-(1,1-difluoro-2-hydroxy-2-methylpropyl)-2-fluorophenyl)ethyl)amino)-7-methoxy-2-methylpyrido[2,3-d]pyrimidin-6-yl)thiomorpholine 1,1-dioxide] | ≥ 6.00 | > 6.30 | > 7.00 | > 7.30 | ≥ 6.00 | > 6.30 | – | – | – | –
17 | COc1nc2nc(C)nc(N[C@H](C)c3cccc(C(F)(F)CCC4CNC4)c3F)c2cc1C1(C#N)CC1 [Compound 172, (R)-1-(4-((1-(3-(3-(azetidin-3-yl)-1,1-difluoropropyl)-2-fluorophenyl)ethyl)amino)-7-methoxy-2-methylpyrido[2,3-d]pyrimidin-6-yl)cyclopropane-1-carbonitrile] | ≥ 6.00 | > 6.30 | > 7.00 | > 7.30 | 5.00 to 6.00 | – | – | – | – | –
18 | COc1nc2nc(C)nc(N[C@H](C)c3cccc(C(F)(F)C(C)(C)O)c3)c2cc1C1CCS(=O)(=O)CC1 [Compound 173, (R)-4-(4-((1-(3-(1,1-difluoro-2-hydroxy-2-methylpropyl)phenyl)ethyl)amino)-7-methoxy-2-methylpyrido[2,3-d]pyrimidin-6-yl)tetrahydro-2H-thiopyran 1,1-dioxide] | ≥ 6.00 | > 6.30 | > 7.00 | > 7.30 | 5.00 to 6.00 | – | – | – | – | –

Source: patent US11648254B2 (Kumquat Biosciences Inc., priority 2021, dated 2023)
